Data: patent publication US12613179B2, “Label-free electrical monitoring of cell aggregates” (NANYANG TECHNOLOGICAL UNIVERSITY, priority 2020, dated 2026)

Tested on: cell aggregates modelling cancer tumoroids
Assay: drug susceptibility testing of cell aggregates by EIS-based electrical signatures and optical microscopy
Method: In another set of experiments, the method of the present disclosure is shown to be useful in the continuous monitoring of the physiological and/or morphological changes of cell aggregates in drug susceptibility testing. Paclitaxel (PTX), a common anti-cancer drug for several types of cancers, was provided at different concentrations ranging from 0 nM (nanoMole) to 500 nM to cultures of cell aggregates modelling cancer tumoroids and observed over a period of 24 hours. […] Based on optical microscopy, it can be appreciated that there are hardly any distinguishable differences between the cell aggregate image at 100 nM of PTX and the cell aggregate images at 200 nM PTX or 500 nM PTX. […] Conventionally, it would have required testing the extracellular environment for metabolites to determine such a change. In contrast, by considering the two EIS-based electrical signatures of electrical size and opacity, more information on the effect of drug treatment can be determined. […] The two EIS-based electrical signatures together are able to indicate that the physiological state of the cells undergo substantive changes only after the drug concentration is raised to 500 nM. This is consistent with what is known of the drug treatment modelled in these experiments, and validates the usefulness of the EIS-based electrical signatures in monitoring physiological and/or morphological changes in 3D cell aggregates.

In the case of `CC(=O)O[C@H]1C(=O)[C@@]2(C)[C@H]([C@H](OC(=O)c3ccccc3)[C@]3(O)C[C@H](OC(=O)[C@H](O)[C@@H](NC(=O)c4ccccc4)c4ccccc4)C(C)=C1C3(C)C)[C@]1(OC(C)=O)CO[C@@H]1C[C@@H]2O` [Paclitaxel], the “optical size of the cell aggregate (optical microscopy)” value (100 nM PTX, 24 hours, FIG. 17A) is reported as “started to decrease”, the “electrical size of the cell aggregates” value (500 nM PTX, observed over 24 hours, FIG. 17B, 0 nM control 300±41.8 μm) is reported as 281±40.3 μm and the “opacity of the cell aggregates” value (drug concentration increased from 0 nM to 500 nM, 24 hours, FIG. 17C) is reported as “remains relatively unchanged”.
